These results are taken from US4948782A, “A method of promoting the growth of domestic animals with erythromycin derivative containing composition” (Kitasato Kenkyusho, priority 1987, dated 1990).

What is called MIC is the least concentration at which growth counts as inhibited.

Holding throughout (format): cell-based
For test [1], the system named is Bacillus cereus IFO 3001. In words: MIC, Bacillus cereus IFO 3001 (BC). Particulars: Bacillus cereus, IFO3001, Bacillus cereus IFO 3001; read-out: MIC BC.
The subject of test [2] is Staphylococcus aureus FDA 209P. The test can be described thus: MIC, Staphylococcus aureus FDA 209P (SA(2)). Particulars: Staphylococcus aureus, FDA209P, Staphylococcus aureus FDA 209P; read-out: MIC SA (2). The text has this:
(§1) The minimum inhibitory concentrations (MIC: mcg/ml) of the erythromycin derivatives of the present invention and the control erythromycin derivative (*) as the known growth promoting agent on typical test bacteria are shown in the following Tables 1 to 5.
SA(2): Staphylococcus aureus FDA 209P

In test [3] the test system is Klebsiella pneumoniae ATCC 10031. The test can be described thus: MIC, Klebsiella pneumoniae ATCC 10031 (KP). Particulars: ATCC10031; Klebsiella pneumoniae ATCC 10031; read-out: MIC KP.
Test [4] relates to Bacillus subtilis. The test can be described thus: MIC, Bacillus subtilis (BS). Particulars: read-out: MIC BS.
Test [5] deals with Escherichia coli NIHJ. The test can be described thus: MIC, Escherichia coli NIHJ (EC).
Test [6] has as its system Staphylococcus aureus ATCC 6538P. In words: MIC, Staphylococcus aureus ATCC 6538P (SA(1)). Particulars: Staphylococcus aureus, ATCC6538P, Staphylococcus aureus ATCC 6538P; read-out: MIC SA (1).
From the text: as §1
SA(1): Staphylococcus aureus ATCC 6538P

On to `CCC1OC(=O)C(C)C(OC2CC(C)(OC)C(O)C(C)O2)C(C)C(OC2OC(C)CC(N3CCCC3)C2O)C2(C)CC(C)=C(O2)C(C)C(O)C1(C)O` (stereo not drawn) [Compound 13], for which the MIC in test [1], in test [2], in test [3], in test [4], in test [5] and in test [6] was > 100 µg/mL each time.

Consider `CCC1OC(=O)C(C)C(OC2CC(C)(OC)C(O)C(C)O2)C(C)C(OC2OC(C)CC([N+]3(C)CCCC3)C2O)C2(C)CC(C)=C(O2)C(C)C(O)C1(C)O` (stereo not drawn) [Compound 14], for which the MIC in test [1], in test [2], in test [3], in test [4], in test [5] and in test [6] was > 100 µg/mL throughout.

On to `CCC1OC(=O)C(C)C(OC2CC(C)(OC)C(O)C(C)O2)C(C)C(OC2OC(C)CC([N+](C)(C)CCO)C2O)C2(C)CC(C)=C(O2)C(C)C(O)C1(C)O` (stereo not drawn) [Compound 15], for which the minimum inhibitory concentration (MIC) in test [1], in test [2], in test [3], in test [4], in test [5] and in test [6] was > 100 µg/mL throughout.

With `C=CC[N+](C)(C)C1CC(C)OC(OC2C(C)C(OC3CC(C)(OC)C(O)C(C)O3)C(C)C(=O)OC(CC)C(C)(O)C(O)C(C)C3=C(C)CC2(C)O3)C1O` (stereo not drawn) [Compound 16], the MIC is > 100 µg/mL in test [1]; > 100 µg/mL in test [2]; > 100 µg/mL in test [3]; > 100 µg/mL in test [4]; > 100 µg/mL in test [5]; 100 µg/mL in test [6].

With `CCC1OC(=O)C(C)C(OC2CC(C)(OC)C(O)C(C)O2)C(C)C(OC2OC(C)CC([N+](C)(C)Cc3ccccc3)C2O)C2(C)CC(C)=C(O2)C(C)C(O)C1(C)O` (stereo not drawn) [Compound 17], the MIC in test [1] is 100 µg/mL; in test [2], 100 µg/mL; in test [3] it was > 100 µg/mL; in test [4], 50 µg/mL; in test [5], > 100 µg/mL; in test [6], 100 µg/mL.

With `CCC1OC(=O)C(C)C(OC2CC(C)(OC)C(O)C(C)O2)C(C)C(OC2OC(C)CC([N+](C)(C)CC)C2O)C2(C)CC(C)=C(O2)C(C)C(OS(C)(=O)=O)C1(C)O` (stereo not drawn) [Compound 18], the MIC in test [1], in test [2], in test [3], in test [4], in test [5] and in test [6] was > 100 µg/mL in each case.

As for `CCC1OC(=O)C(C)C(OC2CC(C)(OC)C(O)C(C)O2)C(C)C(OC2OC(C)CC(N(CC)CC)C2O)C2(C)CC(C)=C(O2)C(C)C(O)C1(C)O` (stereo not drawn) [Compound 20], the MIC in test [1], in test [2], in test [3], in test [4], in test [5] and in test [6] was > 100 µg/mL in each case.

For the compound `CCNC1CC(C)OC(OC2C(C)C(OC3CC(C)(OC)C(O)C(C)O3)C(C)C(=O)OC(CC)C(C)(O)C(O)C(C)C3=C(C)CC2(C)O3)C1O` (stereo not drawn) [Compound 21], the minimal inhibitory concentration (MIC) in test [1], in test [2], in test [3], in test [4], in test [5] and in test [6] was > 100 µg/mL throughout.

Take `CCC1OC(=O)C(C)C(OC2CC(C)(OC)C(O)C(C)O2)C(C)C(OC2OC(C)CC(N3CCCCC3)C2O)C2(C)CC(C)=C(O2)C(C)C(O)C1(C)O` (stereo not drawn) [Compound 22]: the minimal inhibitory concentration (MIC) in test [1], in test [2], in test [3], in test [4], in test [5] and in test [6] was > 100 µg/mL throughout.

In the case of `CCC1OC(=O)C(C)C(OC2CC(C)(OC)C(O)C(C)O2)C(C)C(OC2OC(C)CC([N+](CC)(CC)CC)C2O)C2(C)CC(C)=C(O2)C(C)C(O)C1(C)O` (stereo not drawn) [Compound 23], the MIC in test [1], in test [2], in test [3], in test [4], in test [5] and in test [6] was > 100 µg/mL throughout.

For the compound `CCC1OC(=O)C(C)C(OC2CC(C)(OC)C(O)C(C)O2)C(C)C(OC2OC(C)CC([N+]3(CC)CCCC3)C2O)C2(C)CC(C)=C(O2)C(C)C(O)C1(C)O` (stereo not drawn) [Compound 24], the MIC in test [1], in test [2], in test [3], in test [4], in test [5] and in test [6] was > 100 µg/mL each time.

With `CCC1OC(=O)C(C)C(OC2CC(C)(OC)C(O)C(C)O2)C(C)C(OC2OC(C)CC([N+]3(C)CCCCC3)C2O)C2(C)CC(C)=C(O2)C(C)C(O)C1(C)O` (stereo not drawn) [Compound 25], the MIC in test [1], in test [2], in test [3], in test [4], in test [5] and in test [6] was > 100 µg/mL each time.

`CCC1OC(=O)C(C)C(OC2CC(C)(OC)C(O)C(C)O2)C(C)C(OC2OC(C)CC([N+]3(CC)CCCCC3)C2O)C2(C)CC(C)=C(O2)C(C)C(O)C1(C)O` (stereo not drawn) [Compound 26]: the MIC in test [1], in test [2], in test [3], in test [4], in test [5] and in test [6] was > 100 µg/mL throughout.

In the case of `C#CC[N+](C)(C)C1CC(C)OC(OC2C(C)C(OC3CC(C)(OC)C(O)C(C)O3)C(C)C(=O)OC(CC)C(C)(O)C(O)C(C)C3=C(C)CC2(C)O3)C1O` (stereo not drawn) [Compound 27], the MIC was 100 µg/mL in test [1]; 100 µg/mL in test [2]; > 100 µg/mL in test [3]; 100 µg/mL in test [4]; > 100 µg/mL in test [5]; 100 µg/mL in test [6].

For `C#CC[N+](C)(C)C1CC(C)OC(OC2C(C)C(OC3CC(C)(OC)C(O)C(C)O3)C(C)C(=O)OC(CC)C(C)(OC(C)=O)C(OC(C)=O)C(C)C3=C(C)CC2(C)O3)C1O` (stereo not drawn) [Compound 28], the MIC in test [1] was 50 µg/mL; in test [2], 50 µg/mL; in test [3] it was > 100 µg/mL; in test [4] it was 50 µg/mL; in test [5] it was > 100 µg/mL; in test [6], 50 µg/mL.

In the case of `CCC1OC(=O)C(C)C(OC2CC(C)(OC)C(O)C(C)O2)C(C)C(OC2OC(C)CC([N+](C)(C)CC)C2O)C2(C)CC(C)=C(O2)C(C)C(OC(C)=O)C1(C)OC(C)=O` (stereo not drawn) [Compound 29], the minimal inhibitory concentration (MIC) in test [1] was 100 µg/mL; in test [2], 50 µg/mL; in test [3], > 100 µg/mL; in test [4], 100 µg/mL; in test [5], > 100 µg/mL; in test [6], 100 µg/mL.

For `CCC1OC(=O)C(C)C(OC2CC(C)(OC)C(O)C(C)O2)C(C)C(OC2OC(C)CC([N+](C)(C)CC(=O)OC)C2O)C2(C)CC(C)=C(O2)C(C)C(O)C1(C)O` (stereo not drawn) [Compound 30], the MIC in test [1], in test [2], in test [3], in test [4], in test [5] and in test [6] was > 100 µg/mL throughout.

For the compound `CCC1OC(=O)C(C)C(OC2CC(C)(OC)C(O)C(C)O2)C(C)C(OC2OC(C)CC([N+](C)(C)CC(=O)O)C2O)C2(C)CC(C)=C(O2)C(C)C(O)C1(C)O` (stereo not drawn) [Compound 31], the minimum inhibitory concentration (MIC) in test [1], in test [2], in test [3], in test [4], in test [5] and in test [6] was > 100 µg/mL each time.

`CCC1OC(=O)C(C)C(OC2CC(C)(OC)C(O)C(C)O2)C(C)C(OC2OC(C)CC([N+](C)(C)CCF)C2O)C2(C)CC(C)=C(O2)C(C)C(O)C1(C)O` (stereo not drawn) [Compound 32]: the MIC in test [1], in test [2], in test [3], in test [4], in test [5] and in test [6] was > 100 µg/mL each time.

Take `CCC1OC(=O)C(C)C(OC2CC(C)(OC)C(O)C(C)O2)C(C)C(OC2OC(C)CC([N+](C)(C)CC#N)C2O)C2(C)CC(C)=C(O2)C(C)C(O)C1(C)O` (stereo not drawn) [Compound 33]: the minimum inhibitory concentration (MIC) in test [1], in test [2], in test [3], in test [4], in test [5] and in test [6] was > 100 µg/mL each time.

For `C=CCN(C)C1CC(C)OC(OC2C(C)C(OC3CC(C)(OC)C(O)C(C)O3)C(C)C(=O)OC(CC)C(C)(O)C(O)C(C)C3=C(C)CC2(C)O3)C1O` (stereo not drawn) [Compound 34], the MIC in test [1], in test [2], in test [3], in test [4], in test [5] and in test [6] was > 100 µg/mL each time.

As to `C#CCN(C)C1CC(C)OC(OC2C(C)C(OC3CC(C)(OC)C(O)C(C)O3)C(C)C(=O)OC(CC)C(C)(O)C(O)C(C)C3=C(C)CC2(C)O3)C1O` (stereo not drawn) [Compound 35], the MIC in test [1], in test [2], in test [3], in test [4], in test [5] and in test [6] was > 100 µg/mL throughout.

Turning to `CCCN(C)C1CC(C)OC(OC2C(C)C(OC3CC(C)(OC)C(O)C(C)O3)C(C)C(=O)OC(CC)C(C)(O)C(O)C(C)C3=C(C)CC2(C)O3)C1O` (stereo not drawn) [Compound 36], the MIC in test [1], in test [2], in test [3], in test [4], in test [5] and in test [6] was > 100 µg/mL each time.
